{"source": "ChEMBL document CHEMBL3045538", "about": "“Amino acid chemistry in crop protection” (2010)", "assay_type_in_all_cases": "functional", "key": {"Digitaria sanguinalis": {"tested_on": "Digitaria sanguinalis", "assay": "Post-emergence herbicidal activity against Digitaria sanguinalis (hairy crabgrass)"}, "Setaria viridis": {"tested_on": "Setaria viridis", "assay": "Post-emergence herbicidal activity against Setaria viridis (green foxtail)"}, "Ipomoea purpurea": {"tested_on": "Ipomoea purpurea", "assay": "Post-emergence herbicidal activity against Ipomoea purpurea (common morning-glory)"}, "Echinochloa crus-galli": {"tested_on": "Echinochloa crus-galli", "assay": "Post-emergence herbicidal activity against Echinochloa crus-galli (barnyard grass)"}, "Abutilon theophrasti": {"tested_on": "Abutilon theophrasti", "assay": "Post-emergence herbicidal activity against Abutilon theophrasti (velvetleaf)"}, "Plasmopara viticola": {"tested_on": "Plasmopara viticola", "assay": "Fungicidal activity against Plasmopara viticola"}, "Phytophthora infestans": {"tested_on": "Phytophthora infestans", "assay": "Fungicidal activity against Phytophthora infestans"}}, "data": [{"smiles": "COC(=O)[C@H](C)n1nnc2ccc(Oc3c(F)cc(C(F)(F)F)cc3Cl)cc21", "values": [{"measurement": "ED85", "setting": "Digitaria sanguinalis", "result": 125, "unit": "g/ha"}, {"measurement": "ED85", "setting": "Setaria viridis", "result": 125, "unit": "g/ha"}, {"measurement": "ED85", "setting": "Ipomoea purpurea", "result": "<32", "unit": "g/ha"}, {"measurement": "ED85", "setting": "Echinochloa crus-galli", "result": 63, "unit": "g/ha"}, {"measurement": "ED85", "setting": "Abutilon theophrasti", "result": "<32", "unit": "g/ha"}]}, {"smiles": "CCC#CCOc1ccc(CCNC(=O)[C@@H](NS(C)(=O)=O)[C@@H](C)O)cc1OC", "values": [{"measurement": "EC80", "setting": "Plasmopara viticola", "result": 109, "unit": "µg/mL"}, {"measurement": "EC80", "setting": "Phytophthora infestans", "result": 148, "unit": "µg/mL"}]}, {"smiles": "CCC#CCOc1ccc(CCNC(=O)[C@H](CCC(=O)O)NS(C)(=O)=O)cc1OC", "values": [{"measurement": "EC80", "setting": "Plasmopara viticola", "result": "> 200", "unit": "µg/mL"}, {"measurement": "EC80", "setting": "Phytophthora infestans", "result": "> 200", "unit": "µg/mL"}]}, {"smiles": "CCC#CCOc1ccc(CCNC(=O)[C@H](CCSC)NS(C)(=O)=O)cc1OC", "values": [{"measurement": "EC80", "setting": "Plasmopara viticola", "result": "> 200", "unit": "µg/mL"}, {"measurement": "EC80", "setting": "Phytophthora infestans", "result": "> 200", "unit": "µg/mL"}]}, {"smiles": "Fc1cc(C(F)(F)F)cc(Cl)c1Oc1ccc2nn[nH]c2c1", "values": [{"measurement": "ED85", "setting": "Digitaria sanguinalis", "result": 250, "unit": "g/ha"}, {"measurement": "ED85", "setting": "Setaria viridis", "result": ">500", "unit": "g/ha"}, {"measurement": "ED85", "setting": "Ipomoea purpurea", "result": "<32", "unit": "g/ha"}, {"measurement": "ED85", "setting": "Echinochloa crus-galli", "result": ">500", "unit": "g/ha"}, {"measurement": "ED85", "setting": "Abutilon theophrasti", "result": 250, "unit": "g/ha"}]}, {"smiles": "CCn1nnc2ccc(Oc3c(F)cc(C(F)(F)F)cc3Cl)cc21", "values": [{"measurement": "ED85", "setting": "Digitaria sanguinalis", "result": ">500", "unit": "g/ha"}, {"measurement": "ED85", "setting": "Setaria viridis", "result": ">500", "unit": "g/ha"}, {"measurement": "ED85", "setting": "Ipomoea purpurea", "result": "<32", "unit": "g/ha"}, {"measurement": "ED85", "setting": "Echinochloa crus-galli", "result": ">500", "unit": "g/ha"}, {"measurement": "ED85", "setting": "Abutilon theophrasti", "result": "<32", "unit": "g/ha"}]}, {"smiles": "C#CCn1nnc2ccc(Oc3c(F)cc(C(F)(F)F)cc3Cl)cc21", "values": [{"measurement": "ED85", "setting": "Digitaria sanguinalis", "result": 500, "unit": "g/ha"}, {"measurement": "ED85", "setting": "Setaria viridis", "result": 63, "unit": "g/ha"}, {"measurement": "ED85", "setting": "Ipomoea purpurea", "result": "<32", "unit": "g/ha"}, {"measurement": "ED85", "setting": "Echinochloa crus-galli", "result": 250, "unit": "g/ha"}, {"measurement": "ED85", "setting": "Abutilon theophrasti", "result": 250, "unit": "g/ha"}]}, {"smiles": "COC(=O)Cn1nnc2ccc(Oc3c(F)cc(C(F)(F)F)cc3Cl)cc21", "values": [{"measurement": "ED85", "setting": "Digitaria sanguinalis", "result": ">8", "unit": "g/ha"}, {"measurement": "ED85", "setting": "Setaria viridis", "result": 2, "unit": "g/ha"}, {"measurement": "ED85", "setting": "Ipomoea purpurea", "result": 0.5, "unit": "g/ha"}, {"measurement": "ED85", "setting": "Echinochloa crus-galli", "result": 4, "unit": "g/ha"}, {"measurement": "ED85", "setting": "Abutilon theophrasti", "result": ">8", "unit": "g/ha"}]}, {"smiles": "CC(C(=O)O)n1nnc2ccc(Oc3c(F)cc(C(F)(F)F)cc3Cl)cc21", "note": "(centres undefined)", "values": [{"measurement": "ED85", "setting": "Digitaria sanguinalis", "result": 8, "unit": "g/ha"}, {"measurement": "ED85", "setting": "Setaria viridis", "result": 1, "unit": "g/ha"}, {"measurement": "ED85", "setting": "Ipomoea purpurea", "result": "<0.5", "unit": "g/ha"}, {"measurement": "ED85", "setting": "Echinochloa crus-galli", "result": 4, "unit": "g/ha"}, {"measurement": "ED85", "setting": "Abutilon theophrasti", "result": 1, "unit": "g/ha"}]}, {"smiles": "CC(C(N)=O)n1nnc2ccc(Oc3c(F)cc(C(F)(F)F)cc3Cl)cc21", "note": "(centres undefined)", "values": [{"measurement": "ED85", "setting": "Digitaria sanguinalis", "result": 63, "unit": "g/ha"}, {"measurement": "ED85", "setting": "Setaria viridis", "result": 63, "unit": "g/ha"}, {"measurement": "ED85", "setting": "Ipomoea purpurea", "result": "<32", "unit": "g/ha"}, {"measurement": "ED85", "setting": "Echinochloa crus-galli", "result": 125, "unit": "g/ha"}, {"measurement": "ED85", "setting": "Abutilon theophrasti", "result": "<32", "unit": "g/ha"}]}, {"smiles": "COC(=O)CCn1nnc2ccc(Oc3c(F)cc(C(F)(F)F)cc3Cl)cc21", "values": [{"measurement": "ED85", "setting": "Digitaria sanguinalis", "result": "<32", "unit": "g/ha"}, {"measurement": "ED85", "setting": "Setaria viridis", "result": 250, "unit": "g/ha"}, {"measurement": "ED85", "setting": "Ipomoea purpurea", "result": "<32", "unit": "g/ha"}, {"measurement": "ED85", "setting": "Echinochloa crus-galli", "result": 125, "unit": "g/ha"}, {"measurement": "ED85", "setting": "Abutilon theophrasti", "result": "<32", "unit": "g/ha"}]}, {"smiles": "CCC#CCOc1ccc(CCNC(=O)CNS(C)(=O)=O)cc1OC", "values": [{"measurement": "EC80", "setting": "Plasmopara viticola", "result": "> 200", "unit": "µg/mL"}, {"measurement": "EC80", "setting": "Phytophthora infestans", "result": 148, "unit": "µg/mL"}]}, {"smiles": "CCC#CCOc1ccc(CCNC(=O)[C@H](C)NS(C)(=O)=O)cc1OC", "values": [{"measurement": "EC80", "setting": "Plasmopara viticola", "result": "> 200", "unit": "µg/mL"}, {"measurement": "EC80", "setting": "Phytophthora infestans", "result": "> 200", "unit": "µg/mL"}]}, {"smiles": "CCC#CCOc1ccc(CCNC(=O)[C@H](CCC)NS(C)(=O)=O)cc1OC", "values": [{"measurement": "EC80", "setting": "Plasmopara viticola", "result": 20, "unit": "µg/mL"}, {"measurement": "EC80", "setting": "Phytophthora infestans", "result": 60, "unit": "µg/mL"}]}, {"smiles": "CCC#CCOc1ccc(CCNC(=O)[C@@H](NS(C)(=O)=O)C(C)C)cc1OC", "values": [{"measurement": "EC80", "setting": "Plasmopara viticola", "result": 2, "unit": "µg/mL"}, {"measurement": "EC80", "setting": "Phytophthora infestans", "result": 8, "unit": "µg/mL"}]}, {"smiles": "CCC#CCOc1ccc(CCNC(=O)[C@@H](NS(C)(=O)=O)[C@@H](C)CC)cc1OC", "values": [{"measurement": "EC80", "setting": "Plasmopara viticola", "result": 2, "unit": "µg/mL"}, {"measurement": "EC80", "setting": "Phytophthora infestans", "result": 3, "unit": "µg/mL"}]}, {"smiles": "CCC#CCOc1ccc(CCNC(=O)[C@H](CC(C)C)NS(C)(=O)=O)cc1OC", "values": [{"measurement": "EC80", "setting": "Plasmopara viticola", "result": 18, "unit": "µg/mL"}, {"measurement": "EC80", "setting": "Phytophthora infestans", "result": 12, "unit": "µg/mL"}]}, {"smiles": "CCC#CCOc1ccc(CCNC(=O)C(NS(C)(=O)=O)C(CC)CC)cc1OC", "note": "(racemic)", "values": [{"measurement": "EC80", "setting": "Plasmopara viticola", "result": 16, "unit": "µg/mL"}, {"measurement": "EC80", "setting": "Phytophthora infestans", "result": 16, "unit": "µg/mL"}]}, {"smiles": "CCC#CCOc1ccc(CCNC(=O)C(NS(C)(=O)=O)c2ccc(Cl)cc2)cc1OC", "note": "(racemic)", "values": [{"measurement": "EC80", "setting": "Plasmopara viticola", "result": 15, "unit": "µg/mL"}, {"measurement": "EC80", "setting": "Phytophthora infestans", "result": 20, "unit": "µg/mL"}]}, {"smiles": "C=CCC(NS(C)(=O)=O)C(=O)NCCc1ccc(OCC#CCC)c(OC)c1", "note": "(racemic)", "values": [{"measurement": "EC80", "setting": "Plasmopara viticola", "result": 49, "unit": "µg/mL"}, {"measurement": "EC80", "setting": "Phytophthora infestans", "result": 9, "unit": "µg/mL"}]}]}
